Test results: PMC3832475, “Discovery of Dihydrochalcone as Potential Lead for Alzheimer’s Disease: In Silico and In Vitro Study” (PLoS ONE, 2013)

Target: T1, amyloid beta (Aβ40) (Homo sapiens, UniProt P05067)
T1 construct: gene APP; Aβ40 peptide (40 amino acids)
Assay: ThT fluorescence fibrillization assay with purified Aβ[…]), end-point confirmed by TEM
Assay type: biochemical

T1 sequence (P05067 672-711 limits assumed): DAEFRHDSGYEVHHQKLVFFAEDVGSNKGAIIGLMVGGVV

For `O=C(CCc1ccccc1)c1ccccc1` [Dihydrochalcone], the IC50 was roughly 2460 nM.
